Assay results: PubChem BioAssay (NCI)
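48-hour exposure; five concentrations; linearly interpolated endpoints. The concentration for 50% growth inhibition is given as GI50. TGI is the concentration that stops growth completely.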

Assays:
Experiment in all cases: growth of human tumour cells (NCI), 48 h
A498 renal = system: A498 renal
SK-MEL-5 melanoma = system: SK-MEL-5 melanoma
HT29 colon = system: HT29 colon
SK-MEL-2 melanoma = system: SK-MEL-2 melanoma
NCI-H226 lung = system: NCI-H226 lung
ACHN renal = system: ACHN renal
OVCAR-8 ovarian = system: OVCAR-8 ovarian
CCRF-CEM leukemia = system: CCRF-CEM leukemia
NCI/ADR-RES ovarian = system: NCI/ADR-RES ovarian
SF-539 CNS = system: SF-539 CNS
MOLT-4 leukemia = system: MOLT-4 leukemia
NCI-H522 lung = system: NCI-H522 lung
SF-268 CNS = system: SF-268 CNS
BT-549 breast = system: BT-549 breast
KM12 colon = system: KM12 colon
HOP-62 NSCLC = system: HOP-62 NSCLC
COLO 205 colon = system: COLO 205 colon
RPMI-8226 leukemia = system: RPMI-8226 leukemia
MCF7 breast = system: MCF7 breast
SN12C renal = system: SN12C renal
TK-10 renal = system: TK-10 renal
UACC-257 melanoma = system: UACC-257 melanoma
PC-3 prostate = system: PC-3 prostate
NCI-H460 lung = system: NCI-H460 lung
LOX IMVI melanoma = system: LOX IMVI melanoma
EKVX NSCLC = system: EKVX NSCLC
SNB-19 CNS = system: SNB-19 CNS
NCI-H23 lung = system: NCI-H23 lung
HCT-116 colon = system: HCT-116 colon
T-47D breast = system: T-47D breast
A549 NSCLC = system: A549 NSCLC
UO-31 renal = system: UO-31 renal
SK-MEL-28 melanoma = system: SK-MEL-28 melanoma
HL-60(TB) leukemia = system: HL-60(TB) leukemia
SR leukemia = system: SR leukemia
U251 CNS = system: U251 CNS
K-562 leukemia = system: K-562 leukemia
CAKI-1 renal = system: CAKI-1 renal
RXF 393 renal = system: RXF 393 renal
HOP-92 NSCLC = system: HOP-92 NSCLC
786-0 renal = system: 786-0 renal
SW-620 colon = system: SW-620 colon
HCC-2998 colon = system: HCC-2998 colon
OVCAR-3 ovarian = system: OVCAR-3 ovarian
SF-295 CNS = system: SF-295 CNS
IGROV1 ovarian = system: IGROV1 ovarian
UACC-62 melanoma = system: UACC-62 melanoma
M14 melanoma = system: M14 melanoma
MDA-MB-435 = system: MDA-MB-435
HS 578T breast = system: HS 578T breast
DU-145 prostate = system: DU-145 prostate
HCT-15 colon = system: HCT-15 colon
MDA-MB-231 breast = system: MDA-MB-231 breast
OVCAR-5 ovarian = system: OVCAR-5 ovarian

Q: `Cc1sc(NC2=NC(=O)/C(=C\c3ccccc3)S2)nc1-c1nc(NC2=NC(=O)/C(=C\c3ccccc3)S2)sc1C` was tested. Which GI50 (A498 renal) did it give?
A: 12.1 µM

Q: And the TGI (A498 renal)?
A: 30.7 µM

Q: What about the GI50 (SK-MEL-5 melanoma) of the same compound?
A: 13.1 µM

Q: What about the TGI (SK-MEL-5 melanoma) of the same compound?
A: > 34.5 µM

Q: And the GI50 (HT29 colon)?
A: 23.3 µM

Q: And the TGI (HT29 colon)?
A: > 50 µM

Q: What about the GI50 (SK-MEL-2 melanoma) of the same compound?
A: > 35.1 µM

Q: What about the TGI (SK-MEL-2 melanoma) of the same compound?
A: > 50 µM

Q: And the GI50 (NCI-H226 lung)?
A: 12.4 µM

Q: What about the TGI (NCI-H226 lung) of the same compound?
A: > 32.8 µM

Q: What about the GI50 (ACHN renal) of the same compound?
A: 12.4 µM

Q: What about the TGI (ACHN renal) of the same compound?
A: > 32.6 µM

Q: And the GI50 (OVCAR-8 ovarian)?
A: 16.5 µM

Q: And the TGI (OVCAR-8 ovarian)?
A: > 39.6 µM

Q: And the GI50 (CCRF-CEM leukemia)?
A: 9.41 µM

Q: What about the TGI (CCRF-CEM leukemia) of the same compound?
A: 35.6 µM

Q: And the GI50 (NCI/ADR-RES ovarian)?
A: 14.4 µM

Q: And the TGI (NCI/ADR-RES ovarian)?
A: 43.8 µM

Q: And the GI50 (SF-539 CNS)?
A: 17.9 µM

Q: What about the TGI (SF-539 CNS) of the same compound?
A: > 34.1 µM

Q: What about the GI50 (MOLT-4 leukemia) of the same compound?
A: 24.2 µM

Q: And the TGI (MOLT-4 leukemia)?
A: > 50 µM

Q: What about the GI50 (NCI-H522 lung) of the same compound?
A: 22.3 µM

Q: What about the TGI (NCI-H522 lung) of the same compound?
A: > 50 µM

Q: What about the GI50 (SF-268 CNS) of the same compound?
A: 14.7 µM

Q: And the TGI (SF-268 CNS)?
A: 49.4 µM

Q: What about the GI50 (BT-549 breast) of the same compound?
A: 18.4 µM

Q: And the TGI (BT-549 breast)?
A: > 50 µM

Q: And the GI50 (KM12 colon)?
A: 11.1 µM

Q: And the TGI (KM12 colon)?
A: > 37.9 µM

Q: What about the GI50 (HOP-62 NSCLC) of the same compound?
A: 8.71 µM

Q: And the TGI (HOP-62 NSCLC)?
A: 22.9 µM

Q: What about the GI50 (COLO 205 colon) of the same compound?
A: 26.4 µM

Q: What about the TGI (COLO 205 colon) of the same compound?
A: > 50 µM

Q: And the GI50 (RPMI-8226 leukemia)?
A: 8.45 µM

Q: And the TGI (RPMI-8226 leukemia)?
A: 31.6 µM

Q: And the GI50 (MCF7 breast)?
A: 16.2 µM

Q: And the TGI (MCF7 breast)?
A: > 50 µM

Q: What about the GI50 (SN12C renal) of the same compound?
A: 11.4 µM

Q: And the TGI (SN12C renal)?
A: 29.8 µM

Q: What about the GI50 (TK-10 renal) of the same compound?
A: 7.19 µM

Q: What about the TGI (TK-10 renal) of the same compound?
A: 22.7 µM

Q: What about the GI50 (UACC-257 melanoma) of the same compound?
A: 13.7 µM

Q: And the TGI (UACC-257 melanoma)?
A: > 38.7 µM

Q: And the GI50 (PC-3 prostate)?
A: 16.7 µM

Q: And the TGI (PC-3 prostate)?
A: > 50 µM

Q: And the GI50 (NCI-H460 lung)?
A: 15.5 µM

Q: And the TGI (NCI-H460 lung)?
A: > 50 µM

Q: And the GI50 (LOX IMVI melanoma)?
A: 11.2 µM

Q: What about the TGI (LOX IMVI melanoma) of the same compound?
A: 35.3 µM

Q: What about the GI50 (EKVX NSCLC) of the same compound?
A: 0.0627 µM

Q: What about the TGI (EKVX NSCLC) of the same compound?
A: 1.94 µM

Q: And the GI50 (SNB-19 CNS)?
A: 26 µM

Q: What about the TGI (SNB-19 CNS) of the same compound?
A: > 50 µM

Q: What about the GI50 (NCI-H23 lung) of the same compound?
A: 15.4 µM

Q: And the TGI (NCI-H23 lung)?
A: > 41.4 µM

Q: What about the GI50 (HCT-116 colon) of the same compound?
A: 9.31 µM

Q: What about the TGI (HCT-116 colon) of the same compound?
A: 24.6 µM

Q: And the GI50 (T-47D breast)?
A: 28.2 µM

Q: And the TGI (T-47D breast)?
A: > 50 µM

Q: What about the GI50 (A549 NSCLC) of the same compound?
A: 15.5 µM

Q: And the TGI (A549 NSCLC)?
A: > 39.6 µM

Q: And the GI50 (UO-31 renal)?
A: 24.9 µM

Q: What about the TGI (UO-31 renal) of the same compound?
A: > 44.4 µM

Q: And the GI50 (SK-MEL-28 melanoma)?
A: 25.3 µM

Q: What about the TGI (SK-MEL-28 melanoma) of the same compound?
A: > 50 µM

Q: And the GI50 (HL-60(TB) leukemia)?
A: 18 µM

Q: And the TGI (HL-60(TB) leukemia)?
A: > 50 µM

Q: And the GI50 (SR leukemia)?
A: 7.49 µM

Q: And the TGI (SR leukemia)?
A: 21.4 µM

Q: And the GI50 (U251 CNS)?
A: 9.27 µM

Q: And the TGI (U251 CNS)?
A: 22.9 µM

Q: What about the GI50 (K-562 leukemia) of the same compound?
A: 13.2 µM

Q: What about the TGI (K-562 leukemia) of the same compound?
A: > 35 µM

Q: What about the GI50 (CAKI-1 renal) of the same compound?
A: 12.1 µM

Q: And the TGI (CAKI-1 renal)?
A: 33.2 µM

Q: What about the GI50 (RXF 393 renal) of the same compound?
A: > 24.2 µM

Q: And the TGI (RXF 393 renal)?
A: > 40.2 µM

Q: What about the GI50 (HOP-92 NSCLC) of the same compound?
A: 12 µM

Q: What about the TGI (HOP-92 NSCLC) of the same compound?
A: > 36.1 µM

Q: What about the GI50 (786-0 renal) of the same compound?
A: 11.4 µM

Q: What about the TGI (786-0 renal) of the same compound?
A: 33.4 µM

Q: What about the GI50 (SW-620 colon) of the same compound?
A: 16.7 µM

Q: What about the TGI (SW-620 colon) of the same compound?
A: > 50 µM

Q: And the GI50 (HCC-2998 colon)?
A: 14.2 µM

Q: And the TGI (HCC-2998 colon)?
A: 39.9 µM

Q: And the GI50 (OVCAR-3 ovarian)?
A: 9.84 µM

Q: What about the TGI (OVCAR-3 ovarian) of the same compound?
A: 29.1 µM

Q: And the GI50 (SF-295 CNS)?
A: 13.2 µM

Q: And the TGI (SF-295 CNS)?
A: > 40.7 µM

Q: And the GI50 (IGROV1 ovarian)?
A: 23 µM

Q: And the TGI (IGROV1 ovarian)?
A: > 50 µM

Q: And the GI50 (UACC-62 melanoma)?
A: 7.45 µM

Q: What about the TGI (UACC-62 melanoma) of the same compound?
A: 24 µM

Q: And the GI50 (M14 melanoma)?
A: 9.51 µM

Q: And the TGI (M14 melanoma)?
A: 23.6 µM

Q: What about the GI50 (MDA-MB-435) of the same compound?
A: 16.3 µM

Q: What about the TGI (MDA-MB-435) of the same compound?
A: > 50 µM

Q: What about the GI50 (HS 578T breast) of the same compound?
A: 3.13 µM

Q: And the TGI (HS 578T breast)?
A: > 50 µM

Q: What about the GI50 (DU-145 prostate) of the same compound?
A: 0.382 µM

Q: What about the TGI (DU-145 prostate) of the same compound?
A: > 20.6 µM

Q: What about the GI50 (HCT-15 colon) of the same compound?
A: 13 µM

Q: What about the TGI (HCT-15 colon) of the same compound?
A: > 39.6 µM

Q: And the GI50 (MDA-MB-231 breast)?
A: 10.2 µM

Q: What about the TGI (MDA-MB-231 breast) of the same compound?
A: 27 µM

Q: And the GI50 (OVCAR-5 ovarian)?
A: 26.2 µM

Q: What about the TGI (OVCAR-5 ovarian) of the same compound?
A: > 50 µM
